Measured values reported in patent US20180325861A1, “NOVEL CANNABINOID FORMULATIONS” (priority 2015, published 2018).
Like-named read-outs stand apart in the source and are kept apart here. Marks after values point to notes of the source that are not given here.

Legend:
[1] = Combinatory PNL formulations with cyclosporine (2.2.1); format: physicochemical; details: for dissolution in the cyclosporine formulation: 50 and 100 mg added to cyclosporine solution, visual, after refrigeration
Method: The mixtures were examined visually for complete dissolution, precipitation after 24 hours at refrigeration and for particle size when added to water.
The particle size of the formulations, when added to water, was above 100 nm, compared to the original formulation, as determined by transmission UV at 550 nm turbidity test.
Extensive testing and adjustments were required to design a formulation that could fit two or more agents in a single formulation.

[2] = Method: Formulations prepared by mixing the dry solid powder of the tested compound in either the blank formulation to form 5% w/v or in a formulation already containing 5% w/w CBD. Particle size was determined by particle size analyzer.
[3] = Preliminary screening for maximum CBD loading; format: physicochemical

C[C@@H]1[C@H](O)[C@@H](C)/C=C/C=C/C=C/C=C/C=C/C=C/C=C/[C@H](O[C@@H]2O[C@H](C)[C@@H](O)[C@H](N)[C@@H]2O)C[C@@H]2O[C@](O)(C[C@@H](O)C[C@@H](O)[C@H](O)CC[C@@H](O)C[C@@H](O)CC(=O)O[C@H]1C)C[C@H](O)[C@H]2C(=O)O [Amphitericin B]
dissolution in the cyclosporine formulation [1]: did not fully dissolve

CCOC(=O)c1ccc(N)cc1 [Benzocaine]
PDI ([2]; 3 hr after dissolution): 0.449 | Particle size ([2]; 3 hr after dissolution): 62.22 nm | Visual ([2]; 3 hr after dissolution): clear | PDI ([2]; after 13 days in 4 C): 0.479 | Particle size ([2]; after 13 days in 4 C): 65.82 nm | Visual ([2]; after 13 days in 4 C): clear

C=C(C)[C@@H]1CCC(C)=C[C@H]1c1c(O)cc(CCCCC)cc1O [CBD, Cannabidiol]
maximum CBD load allowing formation of clear solution [3]: 10-12.5% | appearance in the cyclosporine solution ([1]; CBD at 50 mg): clear solution

O=C(N[C@H](CO)[C@H](O)c1ccc([N+](=O)[O-])cc1)C(Cl)Cl [Chloramphenicol]
PDI ([2]; 3 hr after dissolution): 0.118 | Particle size ([2]; 3 hr after dissolution): 30.03 nm | Visual ([2]; 3 hr after dissolution): clear | PDI ([2]; after 13 days in 4 C): 0.172 | Particle size ([2]; after 13 days in 4 C): 29.64 nm | Visual ([2]; after 13 days in 4 C): clear

CC(C)CCC[C@@H](C)[C@H]1CC[C@H]2[C@@H]3CC=C4C[C@@H](O)CC[C@]4(C)[C@H]3CC[C@]12C [Cholesterol]
PDI ([2]; 3 hr after dissolution): 0.487** | Particle size ([2]; 3 hr after dissolution): 96.43 nm | Visual ([2]; 3 hr after dissolution): turbid | PDI ([2]; after 13 days in 4 C): 0.516 | Particle size ([2]; after 13 days in 4 C): 86.94 nm | Visual ([2]; after 13 days in 4 C): turbid

CC(C)Cc1ccc(C(C)C(=O)O)cc1 (centres unmarked) [Ibuprofen]
PDI ([2]; 3 hr after dissolution): 0.398 | Particle size ([2]; 3 hr after dissolution): 74.28 nm | Visual ([2]; 3 hr after dissolution): clear | PDI ([2]; after 13 days in 4 C): 0.367 | Particle size ([2]; after 13 days in 4 C): 67.86 nm | Visual ([2]; after 13 days in 4 C): clear

CC(=O)O[C@H]1C(=O)[C@@]2(C)[C@H]([C@H](OC(=O)c3ccccc3)[C@]3(O)C[C@H](OC(=O)[C@H](O)[C@@H](NC(=O)c4ccccc4)c4ccccc4)C(C)=C1C3(C)C)[C@]1(OC(C)=O)CO[C@@H]1C[C@@H]2O [Paclitxel]
Solubility in PNL with 5% CBD [2]: ~ | Particle size ([2]; 3 hr after dissolution): ~50 nm | Visual ([2]; 3 hr after dissolution): clear | Visual ([2]; after 13 days in 4 C): precipitate | dissolution in the cyclosporine formulation [1]: did not fully dissolve
